# Data taken from patent US9493487B2, “3-(1H-imidazo[4,5-C]pyridin-2-YL)-1H-pyrazolo[3,4-B]pyridine and therapeutic uses thereof” (Samumed, LLC, priority 2014, dated 2016).
# Assays:
# [1] = test system: Wnt activity (Sp5-Luc reporter, SW480 colon carcinoma cells); assay: Sp5-Luc Wnt reporter gene assay in SW480 colon carcinoma cells; type: cell-based; details: Homo sapiens; SW480 cells stably expressing Sp5-Luc reporter; 42 h incubation; BrightGlo luminescence normalized to DMSO
# How it was run: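 IC50 values come from variable-slope four-parameter fits of luciferase signal normalized to DMSO wells. Stable Sp5-Luc reporter SW480 colon carcinoma cells were exposed to compounds in a 3-fold dilution series (source plates from 10 mM stock) for forty-two hours at 37 °C.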
# [2] = test system: primary human fibroblasts derived from IPF patients (LL29 cells); assay: Inhibition of TGF-β1-induced fibrosis (αSMA staining) in primary human fibroblasts from IPF patients; type: cell-based; details: Fibroblast, 96 h, TGF-β1 20 ng/mL, 4 days, 11-point dose-response 10 μM to 1.87 nM
# From the text: The above synthesized compounds were screened using primary human fibroblasts (derived from IPF patients) treated with TGF-β1 to determine their ability to inhibit the fibrotic process.
# Primary human fibroblasts derived from IPF patients (LL29 cells) [^1Xiaoqiu Liu, et. al., “Fibrotic Lung Fibroblasts Show Blunted Inhibition by cAMP Due to Deficient cAMP Response Element-Binding Protein Phosphorylation”, Journal of Pharmacology and Experimental Therapeutics (2005), 315(2), 678-687; ^2Watts, K. L., et. al., “RhoA signaling modulates cyclin D1 expression in human lung fibroblasts; implications for idiopathic pulmonary fibrosis”, Respiratory Research (2006), 7(1), 88] were obtained from American Type Culture Collection (ATCC) and expanded in F12 medium supplemented with 15% Fetal Bovine Serum and Penicillin/Streptomycin.
# Each compound was dissolved in DMSO as a 10 mM stock and used to prepare compound source plates. Serial dilution (1:2, 11-point dose-response curves from 10 μM to 1.87 nM) and compound transfer was performed using the ECHO 550 (Labcyte, Sunnyvale, Calif.) into 384-well clear bottom assay plates (Greiner Bio-One) with appropriate DMSO backfill for a final DMSO concentration of 0.1%. LL29 cells were plated at 1,500 cells/well in 80 μl/well F12 medium supplemented with 1% Fetal Bovine Serum. One hour after addition of the cells, TGF-β1 (Peprotech; 20 ng/mL) was added to the plates to induce fibrosis (ref. 1 and 2 above). Wells treated with TGF-β1 and containing DMSO were used as controls. Cells were incubated at 37° C. and 5% CO2 for 4 days. Following incubation for 4 days, SYTOX green nucleic acid stain (Life Technologies [Thermo Fisher Scientific]) was added to the wells at a final concentration of 1 uM and incubated at room temperature for 30 min. Cells were then fixed using 4% formaldehyde (Electron Microscopy Sciences), washed 3 times with PBS followed by blocking and permeabilization using 3% Bovine Serum Albumin (BSA; Sigma) and 0.3% Triton X-100 (Sigma) in PBS. Cells were then stained with antibody specific to α-smooth muscle actin (αSMA; Abcam) (ref 1 and 2 above) in 3% Bovine Serum Albumin (BSA; Sigma) and 0.3% Triton X-100 (Sigma) in PBS, and incubated overnight at 4° C. Cells were then washed 3 times with PBS, followed by incubation with Alexa Flor-647 conjugated secondary antibody (Life Technologies [Thermo Fisher Scientific]) and DAPI at room temperature for 1 hour. Cells were then washed 3 times with PBS and plates were sealed for imaging. αSMA staining was imaged by excitation at 630 nm and emission at 665 nm and quantified using the Compartmental Analysis program on the CellInsight CX5 (Thermo Scientific). Dead or apoptotic cells were excluded from analysis based on positive SYTOX green staining. % of total cells positive for αSMA were counted in each well and normalized to the average of 11 wells treated with TGF-β1 on the same plate using Dotmatics' Studies Software. The normalized averages (fold change over untreated) of 3 replicate wells for each compound concentration were used to create dose-responses curves and EC50 values were calculated using non-linear regression curve fit in the Dotmatics' Studies Software. The EC50 values are reported.
SMILES,IC50 [1] [nM],EC50 [2] [nM]
"Cc1ccc(-c2nccc3[nH]c(-c4n[nH]c5ncc(-c6cncc(NC(=O)C(C)C)c6)cc45)nc23)s1 [Compound 347, N-(5-(3-(4-(5-Methylthiophen-2-yl)-1H-imidazo[4,5-c]pyridin-2-yl)-1H-pyrazolo[3,4-b]pyridin-5-yl)pyridin-3-yl)isobutyramide]",20.8,633
"Cc1ccc(-c2nccc3[nH]c(-c4n[nH]c5ncc(-c6cncc(CN7CCCCC7)c6)cc45)nc23)s1 [Compound 353, 3-(4-(5-Methylthiophen-2-yl)-1H-imidazo[4,5-c]pyridin-2-yl)-5-(5-(piperidin-1-ylmethyl)pyridin-3-yl)-1H-pyrazolo[3,4-b]pyridine]",576,9
"Cc1ccc(-c2nccc3[nH]c(-c4n[nH]c5ncc(-c6cncc(NC(=O)C7CCCC7)c6)cc45)nc23)s1 [Compound 359, N-(5-(3-(4-(5-Methylthiophen-2-yl)-1H-imidazo[4,5-c]pyridin-2-yl)-1H-pyrazolo[3,4-b]pyridin-5-yl)pyridin-3-yl)cyclopentanecarboxamide]",29.9,4850
"CC(=O)c1ccc(-c2nccc3[nH]c(-c4n[nH]c5ncc(-c6cncc(NC(=O)Cc7ccccc7)c6)cc45)nc23)s1 [Compound 374, N-(5-(3-(4-(5-Acetylthiophen-2-yl)-1H-imidazo[4,5-c]pyridin-2-yl)-1H-pyrazolo[3,4-b]pyridin-5-yl)pyridin-3-yl)-2-phenylacetamide]",> 10000,427
"CC(=O)c1ccc(-c2nccc3[nH]c(-c4n[nH]c5ncc(-c6cncc(NC(=O)C7CCCCC7)c6)cc45)nc23)s1 [Compound 386, N-(5-(3-(4-(5-Acetylthiophen-2-yl)-1H-imidazo[4,5-c]pyridin-2-yl)-1H-pyrazolo[3,4-b]pyridin-5-yl)pyridin-3-yl)cyclohexanecarboxamide]",188,53
"CS(=O)(=O)NCc1cc(F)cc(-c2nccc3[nH]c(-c4n[nH]c5ncc(-c6cncc(NC(=O)c7ccccc7)c6)cc45)nc23)c1 [Compound 401, N-(5-(3-(4-(3-Fluoro-5-(methylsulfonamidomethyl)phenyl)-1H-imidazo[4,5-c]pyridin-2-yl)-1H-pyrazolo[3,4-b]pyridin-5-yl)pyridin-3-yl)benzamide]",> 10000,≥ 9990
"CS(=O)(=O)NCc1cc(F)cc(-c2nccc3[nH]c(-c4n[nH]c5ncc(-c6cncnc6)cc45)nc23)c1 [Compound 416, N-(3-Fluoro-5-(2-(5-(pyrimidin-5-yl)-1H-pyrazolo[3,4-b]pyridin-3-yl)-1H-imidazo[4,5-c]pyridin-4-yl)benzyl)methanesulfonamide]",> 10000,≥ 9990
"CCCCC(=O)Nc1cncc(-c2cnc3[nH]nc(-c4nc5c(-c6cc(F)cc(NCCN(C)C)c6)nccc5[nH]4)c3c2)c1 [Compound 434, N-(5-(3-(4-(3-((2-(Dimethylamino)ethyl)amino)-5-fluorophenyl)-1H-imidazo[4,5-c]pyridin-2-yl)-1H-pyrazolo[3,4-b]pyridin-5-yl)pyridin-3-yl)pentanamide]",21.9,13
"CN(C)CCNc1cc(F)cc(-c2nccc3[nH]c(-c4n[nH]c5ncc(-c6cncc(CNCC7CCCC7)c6)cc45)nc23)c1 [Compound 440, N^1-(3-(2-(5-(5-(((Cyclopentylmethyl)amino)methyl)pyridin-3-yl)-1H-pyrazolo[3,4-b]pyridin-3-yl)-1H-imidazo[4,5-c]pyridin-4-yl)-5-fluorophenyl)-N^2,N^2-dimethylethane-1,2-diamine]",752,858
"Fc1cccc(-c2nccc3[nH]c(-c4n[nH]c5ncc(C6CCNCC6)cc45)nc23)c1 [Compound 885, 3-(4-(3-Fluorophenyl)-1H-imidazo[4,5-c]pyridin-2-yl)-5-(piperidin-4-yl)-1H-pyrazolo[3,4-b]pyridine]",3860,9
"Fc1cccc(-c2nccc3[nH]c(-c4n[nH]c5ncc(-c6cn[nH]c6)cc45)nc23)c1 [Compound 887, 3-(4-(3-Fluorophenyl)-1H-imidazo[4,5-c]pyridin-2-yl)-5-(1H-pyrazol-4-yl)-1H-pyrazolo[3,4-b]pyridine]",6,10
"NC1CN(c2cncc(-c3cnc4[nH]nc(-c5nc6c(-c7cccc(F)c7)nccc6[nH]5)c4c3)n2)C1 [Compound 890, 1-(6-(3-(4-(3-Fluorophenyl)-1H-imidazo[4,5-c]pyridin-2-yl)-1H-pyrazolo[3,4-b]pyridin-5-yl)pyrazin-2-yl)azetidin-3-amine]",365,205
"Fc1cccc(-c2nccc3[nH]c(-c4n[nH]c5ncc(-c6cncc(OC7CCNCC7)c6)cc45)nc23)c1 [Compound 892, 3-(4-(3-Fluorophenyl)-1H-imidazo[4,5-c]pyridin-2-yl)-5-(5-(piperidin-4-yloxy)pyridin-3-yl)-1H-pyrazolo[3,4-b]pyridine]",315,9
"O=C(CC1CCNCC1)Nc1cncc(-c2cnc3[nH]nc(-c4nc5c(-c6cccc(F)c6)nccc5[nH]4)c3c2)c1 [Compound 893, N-(5-(3-(4-(3-Fluorophenyl)-1H-imidazo[4,5-c]pyridin-2-yl)-1H-pyrazolo[3,4-b]pyridin-5-yl)pyridin-3-yl)-2-(piperidin-4-yl)acetamide]",868,308
"CN(C)CCOc1cncc(-c2cnc3[nH]nc(-c4nc5c(-c6cccc(F)c6)nccc5[nH]4)c3c2)c1 [Compound 895, 2-((5-(3-(4-(3-Fluorophenyl)-1H-imidazo[4,5-c]pyridin-2-yl)-1H-pyrazolo[3,4-b]pyridin-5-yl)pyridin-3-yl)oxy)-N,N-dimethylethan-1-amine]",343,≥ 9990
"COc1cncc(-c2cnc3[nH]nc(-c4nc5c(-c6cccc(F)c6)nccc5[nH]4)c3c2)c1 [Compound 896, 3-(4-(3-Fluorophenyl)-1H-imidazo[4,5-c]pyridin-2-yl)-5-(5-methoxypyridin-3-yl)-1H-pyrazolo[3,4-b]pyridine]",37,108
"Fc1cccc(-c2nccc3[nH]c(-c4n[nH]c5ncc(-c6ccncc6)cc45)nc23)c1 [Compound 900, 3-(4-(3-Fluorophenyl)-1H-imidazo[4,5-c]pyridin-2-yl)-5-(pyridin-4-yl)-1H-pyrazolo[3,4-b]pyridine]",> 10000,9
"Fc1cccc(-c2nccc3[nH]c(-c4n[nH]c5ncc(-c6cnccn6)cc45)nc23)c1 [Compound 902, 3-(4-(3-Fluorophenyl)-1H-imidazo[4,5-c]pyridin-2-yl)-5-(pyrazin-2-yl)-1H-pyrazolo[3,4-b]pyridine]",705,9
"CN(C)CC(=O)Nc1cncc(-c2cnc3[nH]nc(-c4nc5c(-c6cccc(F)c6)nccc5[nH]4)c3c2)c1 [Compound 1367, 2-(Dimethylamino)-N-(5-(3-(4-(3-fluorophenyl)-1H-imidazo[4,5-c]pyridin-2-yl)-1H-pyrazolo[3,4-b]pyridin-5-yl)pyridin-3-yl)acetamide]",183,186
